# Laboratory results as given in PubChem BioAssay (NCI).
#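 Growth conditions: 96-well plates. Treatment: test compound, 48 hours, 5 concentrations. Analysis: linear interpolation between bracketing concentrations; unreached endpoints set to highest concentration. Here, GI50 denotes the concentration required for 50% inhibition of growth. The concentration for full growth arrest is given as TGI.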
# How the values were obtained:
# Test in all cases: DTP human tumour cell line panel, 48 h
# [1] = system: SK-MEL-2 melanoma
# [2] = system: LOX IMVI melanoma
# [3] = system: HS 578T breast
# [4] = system: SF-295 CNS
# [5] = system: HL-60(TB) leukemia
# [6] = system: COLO 205 colon
# [7] = system: MCF7 breast
# [8] = system: PC-3 prostate
# [9] = system: RPMI-8226 leukemia
# [10] = system: NCI/ADR-RES ovarian
# [11] = system: SF-539 CNS
# [12] = system: NCI-H23 lung
# [13] = system: SW-620 colon
# [14] = system: CAKI-1 renal
# [15] = system: A498 renal
# [16] = system: HOP-62 NSCLC
# [17] = system: HT29 colon
# [18] = system: HCT-15 colon
# [19] = system: UO-31 renal
# [20] = system: SF-268 CNS
# [21] = system: M14 melanoma
# [22] = system: CCRF-CEM leukemia
# [23] = system: KM12 colon
# [24] = system: UACC-257 melanoma
# [25] = system: SK-MEL-5 melanoma
# [26] = system: MOLT-4 leukemia
# [27] = system: 786-0 renal
# [28] = system: OVCAR-3 ovarian
# [29] = system: MDA-MB-435
# [30] = system: SNB-75 CNS
# [31] = system: SK-MEL-28 melanoma
# [32] = system: RXF 393 renal
# [33] = system: HCT-116 colon
# [34] = system: U251 CNS
# [35] = system: A549 NSCLC
# [36] = system: HCC-2998 colon
# [37] = system: SNB-19 CNS
# [38] = system: SK-OV-3 ovarian
# [39] = system: OVCAR-8 ovarian
# [40] = system: OVCAR-5 ovarian
# [41] = system: HOP-92 NSCLC
# [42] = system: MDA-MB-231 breast
# [43] = system: OVCAR-4 ovarian
# [44] = system: NCI-H460 lung
# [45] = system: K-562 leukemia
# [46] = system: UACC-62 melanoma
# [47] = system: ACHN renal
# [48] = system: EKVX NSCLC
# [49] = system: BT-549 breast
# [50] = system: NCI-H226 lung
# [51] = system: IGROV1 ovarian
# [52] = system: DU-145 prostate
# [53] = system: SR leukemia
# [54] = system: SN12C renal
# [55] = system: NCI-H522 lung
# [56] = system: MALME-3M melanoma
# [57] = system: T-47D breast
# [58] = system: TK-10 renal
smiles,measurement,setting,value
CCC(CO)Nc1nc(NCc2ccccc2)c2n[nH]c(C(C)C)c2n1 (stereo unspecified),GI50,[1],5.15 µM
same,TGI,[1],21.4 µM
same,GI50,[2],7.55 µM
same,TGI,[2],20.9 µM
same,GI50,[3],11.6 µM
same,TGI,[3],34.3 µM
same,GI50,[4],16.1 µM
same,TGI,[4],32.7 µM
same,GI50,[5],4.87 µM
same,TGI,[5],21 µM
same,GI50,[6],4.45 µM
same,TGI,[6],17.1 µM
same,GI50,[7],5.92 µM
same,TGI,[7],25.9 µM
same,GI50,[8],7.01 µM
same,TGI,[8],31.5 µM
same,GI50,[9],5.95 µM
same,TGI,[9],29 µM
same,GI50,[10],16.7 µM
same,TGI,[10],39.2 µM
same,GI50,[11],12.7 µM
same,TGI,[11],26.1 µM
same,GI50,[12],12.3 µM
same,TGI,[12],31.2 µM
same,GI50,[13],4.76 µM
same,TGI,[13],18 µM
same,GI50,[14],3 µM
same,TGI,[14],16.2 µM
same,GI50,[15],11.6 µM
same,TGI,[15],24.4 µM
same,GI50,[16],13.9 µM
same,TGI,[16],31.8 µM
same,GI50,[17],3.88 µM
same,TGI,[17],27.8 µM
same,GI50,[18],14.7 µM
same,TGI,[18],49.7 µM
same,GI50,[19],7.43 µM
same,TGI,[19],21.9 µM
same,GI50,[20],10.7 µM
same,TGI,[20],26.4 µM
same,GI50,[21],6.21 µM
same,TGI,[21],20.2 µM
same,GI50,[22],6.55 µM
same,TGI,[22],52.6 µM
same,GI50,[23],10.2 µM
same,TGI,[23],23.1 µM
same,GI50,[24],16.6 µM
same,TGI,[24],35.6 µM
same,GI50,[25],4.91 µM
same,TGI,[25],17.3 µM
same,GI50,[26],11.1 µM
same,TGI,[26],46.3 µM
same,GI50,[27],6.68 µM
same,TGI,[27],21.5 µM
same,GI50,[28],7.32 µM
same,TGI,[28],22.7 µM
same,GI50,[29],10 µM
same,TGI,[29],24 µM
same,GI50,[30],11.4 µM
same,TGI,[30],25.4 µM
same,GI50,[31],10.5 µM
same,TGI,[31],27.7 µM
same,GI50,[32],5.89 µM
same,TGI,[32],21 µM
same,GI50,[33],4.03 µM
same,TGI,[33],14.5 µM
same,GI50,[34],11.4 µM
same,TGI,[34],25.3 µM
same,GI50,[35],12 µM
same,TGI,[35],46.4 µM
same,GI50,[36],12.6 µM
same,TGI,[36],26 µM
same,GI50,[37],15.8 µM
same,TGI,[37],30.5 µM
same,GI50,[38],6.4 µM
same,TGI,[38],20.7 µM
same,GI50,[39],8.98 µM
same,TGI,[39],31.1 µM
same,GI50,[40],13.4 µM
same,TGI,[40],36 µM
same,GI50,[41],3.75 µM
same,TGI,[41],19.5 µM
same,GI50,[42],15.8 µM
same,TGI,[42],35.3 µM
same,GI50,[43],6.81 µM
same,TGI,[43],25.6 µM
same,GI50,[44],4.94 µM
same,TGI,[44],19.4 µM
same,GI50,[45],5.96 µM
same,TGI,[45],34.4 µM
same,GI50,[46],11.3 µM
same,TGI,[46],24.7 µM
same,GI50,[47],4.42 µM
same,TGI,[47],16.9 µM
same,GI50,[48],12.1 µM
same,TGI,[48],27.4 µM
same,GI50,[49],10.7 µM
same,TGI,[49],23.7 µM
same,GI50,[50],23.8 µM
same,TGI,[50],60.8 µM
same,GI50,[51],3.44 µM
same,TGI,[51],25.6 µM
same,GI50,[52],3.73 µM
same,TGI,[52],16.6 µM
same,GI50,[53],3.24 µM
same,TGI,[53],10.6 µM
same,GI50,[54],14.1 µM
same,TGI,[54],31.7 µM
same,GI50,[55],14.5 µM
same,TGI,[55],34.1 µM
same,GI50,[56],13 µM
same,TGI,[56],27.4 µM
same,GI50,[57],16 µM
same,TGI,[57],41.2 µM
same,GI50,[58],13.7 µM
same,TGI,[58],33.1 µM
